Measured values reported in US9610294B2, “Methods and compositions for the treatment of fluid accumulation in and/or under the retina” (UNIVERSITE PARIS DESCARTES, priority 2010, dated 2017).
Entries after “also recorded” stand apart in the source; their conditions may differ.

How the values were obtained:
GFAP = GFAP immunostaining of retinas from aldosterone-injected eyes (glial activation); format: in vivo, Lewis rats; details: intravitreous injection, vs sham-injected retinas
Experimental: (§1) Anesthesia of rats was induced by intramuscular injection of ketamine (100 mg/kg, Virbac, Carros, France) and chlorpromazine (0.65 mg/kg, LARGACTIL®, Sanofi Aventis, Livron sur Drome, France). Intravitreous injections were performed using microfine (300 μl) syringes with 30 G needles under topical anesthesia (tetracaine 1%, Aldrich, Lyon, France). Rat eyes were injected with 5 μl aldosterone diluted in 0.9% saline to obtain a concentration of 200 nM for injection, corresponding to a final concentration of 20 nM in the vitreous. Control rat eyes were injected with 5 μl saline. Twenty-four hrs after injection, rats were sacrificed. Eyes were then removed for retinal flat mounting, immunohistochemistry and morphological analysis respectively.
Eyes were fixed for 15 min in 4% paraformaldehyde (PFA, LADD, Inland Europe, Conflans-sur-Lanterne, France). After washing, retinas were isolated, cut by 4 orthogonal incisions and post-fixed with acetone 100% at −20° C. for 15 min. They were then rehydrated with phosphate-buffered saline (PBS) containing 1% Triton X-I00, and incubated with a polyclonal rabbit antibody against AQP4 (1:100) or a polyclonal rabbit antibody against glial fibrillary acidic protein (GF AP, 1:100, Dako, Trappes, France) at room temperature under stirring overnight. […]

AQP4 [1] = assay: AQP4 immunofluorescence and flat-mount confocal imaging in retina of aldosterone-injected eyes; format: in vivo, Lewis rats; details: aldosterone-injected vs sham-injected eyes
Experimental: as §1
Eyes were fixed for 15 min in 4% paraformaldehyde (PFA, LADD, Inland Europe, Conflans-sur-Lanterne, France). After washing, retinas were isolated, cut by 4 orthogonal incisions and post-fixed with acetone 100% at −20° C. for 15 min. […]
Eyes were snap frozen in Tissue-Tek OCT-compound (Bayer Diagnostics, Puteaux, France). […] Images were taken using a fluorescence microscope (Olympus BX51, Rungis, France) equipped with a CCD camera (Olympus DP70). […]

AQP4 [2] = assay: AQP4 expression (real-time PCR, western blot) in rat RMG primary cultures and retinal explants; format: cell-based
Experimental: Rat RMG cells were obtained as described (deKozak, Y., Naud, M. C., Bellot, J., Faure, J. P., and Hicks, D. (1994) Differential tumor necrosis factor expression by resident retinal cells from experimental uveitis-susceptible and -resistant rat strains. J Neuroimmunol 55, 1-9). Briefly, rats at postnatal (PN) day 17 (when RMG cells are mature) were sacrificed and eyes enucleated. Intact eyeballs were maintained in DMEM overnight at room temperature in the dark, and then incubated 45 min with 2 mg/ml trypsin/collagenase I at 37° C. The neural retinas were separated from the lens and vitreous, cut into small fragments and plated in Petri dishes containing DMEM supplemented with 10% FCS, 100 units/ml penicillin, 100 µg/ml streptomycin, and 0.2% amphotericin B. Cultures were maintained at 37° C. in a humidified atmosphere containing 5% CO2. After 5 to 6 days, the cultures were washed extensively with medium so that only a strongly adherent flat cell population remained.
Müller cells were seeded in 6-well tissue culture plates (Becton Dickinson, Le Pont de Claix, France). Rat PN17 RMG cells were maintained in their initial Petri dishes. Sub confluent (80%) cells were incubated in media supplemented with 10% steroid-free (charcoal treated) FCS for 24 hrs. Corticosteroid (Sigma-Aldrich, Saint Quentin Fallavier, France) treatments were then applied respectively for a further 24 hrs: 10 nM aldosterone, 10 nM aldosterone plus 1).IM RU38486 (GR-specific antagonist), 10 nM aldosterone plus 1 µM RU26752 (MR-specific antagonist) or 1 µM dexamethasone. The steroids were previously dissolved in 2% steroid-free FCS media containing 0.1% ethanol. Control cells were treated with 0.1% ethanol in media.
After enucleation, rat retinas were isolated immediately under aseptic conditions and cut into 4 pieces. They were then transferred onto a Cyclopore 0.2).Im polycarbonate membrane (Whatman, Maidstone, England), and flatmounted with the vitreal side up. The support membranes were placed in 6-well tissue culture plates containing 2 ml DMEM supplemented with 10% steroid-free FCS, 1% penicillin-streptomycin and 0.1% amphotericin B. Explants were treated with corticosteroids as described for cultured cells. Similarly, the dose-dependent effect of aldosterone (0.1-100 nM) was analyzed on retinal explants in separate experiments.
Total RNA was isolated from the treated RMG cells and retinal explants using RNeasy Mini Kit (Qiagen, Courtaboeuf, France). First-strand cDNA was synthesized after DNase I (Qiagen) treatment using random primers (Invitrogen) and superscript II reverse transcriptase (Invitrogen). Transcript levels of ENaC-a, Kir4.1 and AQP4 were analyzed by real-time PCR performed in 7500 Real-Time PCR System (Applied Biosystems, Foster City, Calif., USA) with either TaqMan® (Applied Biosystems) or SYBR® Green (Invitrogen, Cergy Pontoise, France) detection. The 18S was used as internal control.
Retinal explants were homogenized in Np40 buffer in the presence of protease inhibitors. The protein concentration was determined by the Bradford method. Equal amounts of protein (12 .ug) were separated on Novex® 4%-12% Tris-Glycine gel (Invitrogen), transferred to nitrocellulose, and the blots were incubated with primary antibodies at 4° C. overnight. The membranes were washed, incubated with horse radish peroxidase conjugated goat anti-rabbit IgG (1:3000, Vector, AbCys, Paris, France) for 1 hr at room temperature, and developed using ECL Plus western blotting detection reagents (GE healthcare, Orsay, France). The j3-actin was used as internal control. The following primary antibodies were used: rabbit anti-alpha ENaC (1:500, Abcam, Cambridge, Mass., USA), rabbit anti-Kir4.1 (1:400, Alomone Labs, Jerusalem, Israel), rabbit anti-AQP4 (1:750, Millipore, St Quentin en Yvelines, France) and rabbit anti-j3-actin (1:1000, Abcam)

AQP4 [3] = assay: AQP4 mRNA expression in RMG cells (Example 2); format: cell-based
From the text: We have performed several experiments.

aquaporin 1 = assay: Aquaporin 1 expression after exposure to aldosterone; details: normal rat, 24 hours exposure, low aldosterone dose (1-10 nM)

`C[C@]12CCC(=O)C=C1CC[C@@H]1[C@@H]2[C@@H](O)C[C@]2(C=O)[C@@H](C(=O)CO)CC[C@@H]12` [aldosterone] was tested, and the “glial (RMG) activation, GFAP distribution” value (GFAP) was “enhances glial activation; also recorded: strong activation of RMG”, the “AQP4 localization / pattern of expression in retina” value (AQP4 [1]) was “additional localization; also recorded: extends all along RMG prolongations up to the OLM in their apical microvilli; also recorded: perivascular AQP4 fluorescence is more intense; also recorded: additional mislocalization” and the “AQP4 mRNA expression” value (AQP4 [2]; 24 hrs treatment, RMG primary cultures or retinal explants) was “increase”. The “aquaporin 4 (AQP4) up-regulation” value (AQP4 [2]; aldosterone 24 hrs) was 2.9 fold, the “aldosterone concentration at which increase in AQP4 mRNA is saturated” value (AQP4 [2]; dose-dependent effect, retinal explants) was 10 nM and the “expression of aquaporin 4 (AQP4)” value (AQP4 [2]; normal rat, 24 hours exposure, low aldosterone dose (1-10 nM)) was “enhances the expression”. The “AQP4 expression at the protein level” value (AQP4 [2]; western blot) was “increases”, the “expression of the water channel AQP4” value (AQP4 [3]) was “up-regulates” and the “expression of aquaporin 1” value (aquaporin 1) was “reduces”.
